Experimental findings from patent US12162890B2 (Novartis AG, priority 2015, dated 2024) are described below.

Sequence of HEK293 cells with stable expression of the GRIN1 gene and tetracycline-inducible expression of the GRIN2B gene (NMDA receptor, NR2B) (Q13224 27-1484, other chains not shown): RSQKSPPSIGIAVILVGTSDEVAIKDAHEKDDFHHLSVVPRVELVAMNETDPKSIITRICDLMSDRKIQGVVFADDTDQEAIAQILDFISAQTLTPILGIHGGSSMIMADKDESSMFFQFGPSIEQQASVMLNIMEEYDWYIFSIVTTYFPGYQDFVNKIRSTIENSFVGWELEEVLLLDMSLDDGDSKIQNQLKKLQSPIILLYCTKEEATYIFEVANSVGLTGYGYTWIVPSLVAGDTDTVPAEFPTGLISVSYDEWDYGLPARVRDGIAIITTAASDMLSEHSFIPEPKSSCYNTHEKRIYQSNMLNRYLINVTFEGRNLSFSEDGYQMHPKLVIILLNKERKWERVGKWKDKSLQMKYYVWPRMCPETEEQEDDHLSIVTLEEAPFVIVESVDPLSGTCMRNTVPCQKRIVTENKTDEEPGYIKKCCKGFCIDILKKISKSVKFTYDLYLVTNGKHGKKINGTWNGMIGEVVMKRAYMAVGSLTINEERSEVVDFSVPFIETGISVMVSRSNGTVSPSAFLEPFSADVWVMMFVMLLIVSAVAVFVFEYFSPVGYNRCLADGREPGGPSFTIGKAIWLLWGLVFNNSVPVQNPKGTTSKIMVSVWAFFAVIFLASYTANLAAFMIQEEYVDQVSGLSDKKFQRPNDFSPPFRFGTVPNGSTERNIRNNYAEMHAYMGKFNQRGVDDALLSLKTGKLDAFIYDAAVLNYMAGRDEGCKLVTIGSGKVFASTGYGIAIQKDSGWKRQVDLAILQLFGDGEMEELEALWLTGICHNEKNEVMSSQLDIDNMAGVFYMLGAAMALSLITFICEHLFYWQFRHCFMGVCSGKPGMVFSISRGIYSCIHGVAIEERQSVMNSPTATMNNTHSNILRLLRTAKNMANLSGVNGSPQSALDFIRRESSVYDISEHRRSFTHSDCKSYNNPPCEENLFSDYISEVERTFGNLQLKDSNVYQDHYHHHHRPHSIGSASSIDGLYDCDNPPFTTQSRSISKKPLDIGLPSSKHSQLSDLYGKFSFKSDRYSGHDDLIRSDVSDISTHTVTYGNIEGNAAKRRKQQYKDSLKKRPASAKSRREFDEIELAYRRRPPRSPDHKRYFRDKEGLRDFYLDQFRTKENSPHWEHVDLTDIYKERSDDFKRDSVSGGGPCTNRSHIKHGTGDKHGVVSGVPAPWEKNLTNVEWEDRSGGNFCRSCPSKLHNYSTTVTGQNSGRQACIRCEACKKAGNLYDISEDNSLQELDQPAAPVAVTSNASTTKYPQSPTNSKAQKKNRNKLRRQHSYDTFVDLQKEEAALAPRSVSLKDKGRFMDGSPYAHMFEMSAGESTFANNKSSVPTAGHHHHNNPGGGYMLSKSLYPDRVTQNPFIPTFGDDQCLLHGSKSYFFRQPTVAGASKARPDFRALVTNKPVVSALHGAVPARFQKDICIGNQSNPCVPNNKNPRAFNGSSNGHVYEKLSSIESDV

This assay addresses HEK293 cells with stable expression of the GRIN1 gene and tetracycline-inducible expression of the GRIN2B gene (NMDA receptor, NR2B) (Homo sapiens, UniProt Q13224). The experiment in a line: Fluo-8 Ca2+ flux assay: reversal of Ro 25-6981-mediated suppression of the Ca2+ response to co-agonist (glutamate/glycine). Further: test concentration or dose not given here. The format is cell-based. The conditions noted are these: reversal of the Ro 25-6981 suppression of the Ca2+ response to co-agonist (glutamate/glycine).
For `O=C(Cn1ccc2scc(-c3ccc(Cl)c(C(F)(F)F)c3)c2c1=O)N1CCCC1` [Example 1, 3-(4-chloro-3-(trifluoromethyl)phenyl)-5-(2-oxo-2-(pyrrolidin-1-yl)ethyl)thieno[3,2-c]pyridin-4(5H)-one], the “Response Recovered (%)” value is reported as 83%. Under `O=C(Cn1ccc2scc(-c3ccc(Cl)c(F)c3)c2c1=O)N1CCCC1` [Example 2, 3-(4-chloro-3-fluorophenyl)-5-(2-oxo-2-(pyrrolidin-1-yl)ethyl)thieno[3,2-c]pyridin-4(5H)-one] stands 34%. Turning to `O=C(Cn1ccc2scc(-c3ccc(F)c(Cl)c3)c2c1=O)N1CCCC1` [Example 3, 3-(3-chloro-4-fluorophenyl)-5-(2-oxo-2-(pyrrolidin-1-yl)ethyl)thieno[3,2-c]pyridin-4(5H)-one], the “Response Recovered (%)” value turned out to be 60%.

Turning to `O=C(Cn1ccc2scc(-c3ccc(Cl)c(C(F)(F)F)c3)c2c1=O)N1CCC(F)C1` (centres unmarked) [Example 4, 3-(4-chloro-3-(trifluoromethyl)phenyl)-5-(2-(3-fluoropyrrolidin-1-yl)-2-oxoethyl)thieno[3,2-c]pyridin-4(5H)-one], the “Response Recovered (%)” value turned out to be 107%.

In the case of `O=C(Cn1ccc2scc(-c3ccc(Cl)c(C(F)(F)F)c3)c2c1=O)N1CC(F)(F)C1` [Example 5, 3-(4-chloro-3-(trifluoromethyl)phenyl)-5-(2-(3,3-difluoroazetidin-1-yl)-2-oxoethyl)thieno[3,2-c]pyridin-4(5H)-one], the “Response Recovered (%)” value turned out to be 139%. The result for `O=C(Cn1ccc2scc(-c3ccc(Cl)c(F)c3)c2c1=O)N1CC(F)(F)C1` [Example 6, 3-(4-chloro-3-fluorophenyl)-5-(2-(3,3-difluoroazetidin-1-yl)-2-oxoethyl)thieno[3,2-c]pyridin-4(5H)-one] reads 41%; that for `O=C(Cn1ccc2scc(-c3ccc(Cl)c(F)c3)c2c1=O)N1CCC(F)C1` (centres unmarked) [Example 7, 3-(4-chloro-3-fluorophenyl)-5-(2-(3-fluoropyrrolidin-1-yl)-2-oxoethyl)thieno[3,2-c]pyridin-4(5H)-one], 49%; that for `O=C(Cn1ccc2scc(-c3ccc(F)c(Cl)c3)c2c1=O)N1CC(F)(F)C1` [Example 8, 3-(3-Chloro-4-fluorophenyl)-5-[2-(3,3-difluoro-azetidin-1-yl)-2-oxo-ethyl]-5H-thieno[3,2-c]pyridin-4-one], 66%.

Take `O=C(Cn1ccc2scc(-c3ccc(F)c(Cl)c3)c2c1=O)N1CCC(F)C1` (centres unmarked) [Example 9, 3-(3-Chloro-4-fluoro-phenyl)-5-[2-(3-fluoro-pyrrolidin-1-yl)-2-oxo-ethyl]-5H-thieno[3,2-c]pyridin-4-one]: the “Response Recovered (%)” value was 81%. On to `O=C(Cn1ccc2scc(-c3ccc(Cl)c(Cl)c3)c2c1=O)N1CCC(F)C1` (centres unmarked) [Example 10, 3-(3,4-dichlorophenyl)-5-(2-(3-fluoropyrrolidin-1-yl)-2-oxoethyl)thieno[3,2-c]pyridin-4(5H)-one], for which the “Response Recovered (%)” value is recorded as 102%.

Take `O=C(Cn1ccc2scc(-c3ccc(F)c(C(F)(F)F)c3)c2c1=O)N1CCC(F)C1` (centres unmarked) [Example 11, 3-(4-fluoro-3-(trifluoromethyl)phenyl)-5-(2-(3-fluoropyrrolidin-1-yl)-2-oxoethyl)thieno[3,2-c]pyridin-4(5H)-one]: the “Response Recovered (%)” value came to 99%. The result for `O=C(Cn1ccc2scc(-c3cnc(Cl)c(Cl)c3)c2c1=O)N1CCC(F)C1` (centres unmarked) [Example 12, 3-(5,6-dichloropyridin-3-yl)-5-(2-(3-fluoropyrrolidin-1-yl)-2-oxoethyl)thieno[3,2-c]pyridin-4(5H)-one] reads 35%; that for `O=C(Cn1ccc2scc(-c3ccc(C(F)(F)F)c(Cl)c3)c2c1=O)N1CCC(F)C1` (centres unmarked) [Example 13, 3-(3-chloro-4-(trifluoromethyl)phenyl)-5-(2-(3-fluoropyrrolidin-1-yl)-2-oxoethyl)thieno[3,2-c]pyridin-4(5H)-one], 90%. Take `O=C(Cn1ccc2scc(-c3ccc(Cl)c(C(F)(F)F)c3)c2c1=O)N1C[C@@H](F)[C@@H](F)C1` [Example 14, 3-(4-chloro-3-(trifluoromethyl)phenyl)-5-(2-((3S,4R)-3,4-difluoropyrrolidin-1-yl)-2-oxoethyl)thieno[3,2-c]pyridin-4(5H)-one]: the “Response Recovered (%)” value was 99%. Regarding `O=C(Cn1ccc2scc(-c3ccc(Cl)c(C(F)(F)F)c3)c2c1=O)N1CC[C@H](F)C1` [Example 15, (S)-3-(4-chloro-3-(trifluoromethyl)phenyl)-5-(2-(3-fluoropyrrolidin-1-yl)-2-oxoethyl)thieno[3,2-c]pyridin-4(5H)-one], the “Response Recovered (%)” value was found to be 95%. With `O=C(Cn1ccc2scc(-c3ccc(Cl)c(Cl)c3)c2c1=O)N1C[C@@H](F)[C@@H](F)C1` [Example 16, 3-(3,4-dichlorophenyl)-5-(2-((3S,4R)-3,4-difluoropyrrolidin-1-yl)-2-oxoethyl)thieno[3,2-c]pyridin-4(5H)-one], the “Response Recovered (%)” value was 107%. Under `O=C(Cn1ccc2scc(-c3ccc(Cl)c(C(F)(F)F)c3)c2c1=O)N1CC[C@@H](F)C1` [Example 17, (R)-3-(4-chloro-3-(trifluoromethyl)phenyl)-5-(2-(3-fluoropyrrolidin-1-yl)-2-oxoethyl)thieno[3,2-c]pyridin-4(5H)-one] stands 99%; under `CC1(F)CN(C(=O)Cn2ccc3scc(-c4ccc(Cl)c(F)c4)c3c2=O)C1` [Example 18, 3-(4-chloro-3-fluorophenyl)-5-(2-(3-fluoro-3-methylazetidin-1-yl)-2-oxoethyl)thieno[3,2-c]pyridin-4(5H)-one], 120%.

`CC1(F)CN(C(=O)Cn2ccc3scc(-c4cnc(F)c(Cl)c4)c3c2=O)C1` [Example 19, 3-(5-chloro-6-fluoropyridin-3-yl)-5-(2-(3-fluoro-3-methylazetidin-1-yl)-2-oxoethyl)thieno[3,2-c]pyridin-4(5H)-one]: the “Response Recovered (%)” value stood at 35%. The result for `CC1(F)CN(C(=O)Cn2ccc3scc(-c4ccc(F)c(F)c4)c3c2=O)C1` [Example 20, 3-(3,4-difluorophenyl)-5-(2-(3-fluoro-3-methylazetidin-1-yl)-2-oxoethyl)thieno[3,2-c]pyridin-4(5H)-one] reads 41%. The result for `CC1(F)CN(C(=O)Cn2ccc3scc(-c4ccc(Cl)c(C(F)(F)F)c4)c3c2=O)C1` [Example 21, 3-(4-chloro-3-(trifluoromethyl)phenyl)-5-(2-(3-fluoro-3-methylazetidin-1-yl)-2-oxoethyl)thieno[3,2-c]pyridin-4(5H)-one] reads 120%; that for `Cc1cc(-c2csc3ccn(CC(=O)N4CC(C)(F)C4)c(=O)c23)ccc1Cl` [Example 22, 3-(4-chloro-3-methylphenyl)-5-(2-(3-fluoro-3-mehtylazetidin-1-yl)-2-oxoethyl)thieno[3,2-c]pyridin-4(5H)-one], 130%; that for `Cc1cc(-c2csc3ccn(CC(=O)N4CC(C)(F)C4)c(=O)c23)ccc1F` [Example 23, 5-(2-(3-fluoro-3-methylazetidin-1-yl)-2-oxoethyl)-3-(4-fluoro-3-methylphenyl)thieno[3,2-c]pyridin-4(5H)-one], 100%. Regarding `O=C(CCn1ccc2scc(-c3ccc(Cl)c(C(F)(F)F)c3)c2c1=O)N1CCC(F)C1` (centres unmarked) [Example 24, 3-(4-chloro-3-(trifluoromethyl)phenyl)-5-(3-(3-fluoropyrrolidin-1-yl)-3-oxopropyl)thieno[3,2-c]pyridin-4(5H)-one], the “Response Recovered (%)” value was determined as 3%. On to `O=C(Cn1ccc2scc(-c3cnc(Cl)c(C(F)(F)F)c3)c2c1=O)N1CCC(F)C1` (centres unmarked) [Example 25, 3-(6-chloro-5-(trifluoromethyl)pyri-din-3-yl)-5-(2-(3-fluoropyrrolidin-1-yl)-2-oxoethyl)thieno[3,2-c]pyridin-4(5H)-one], for which the “Response Recovered (%)” value is given as 28%. Consider `O=C(Cn1ccc2scc(-c3ccc(F)c(C(F)(F)F)c3)c2c1=O)N1CC[C@H](F)C1` [Example 26, (S)-3-(4-fluoro-3-(trifluoromethyl)phen-yl)-5-(2-(3-fluoropyrrolidin-1-yl)-2-oxoethyl)thieno[3,2-c]pyridin-4(5H)-one], for which the “Response Recovered (%)” value amounted to 103%. Under `O=C(Cn1ccc2scc(-c3ccc(F)c(C(F)(F)F)c3)c2c1=O)N1CC[C@@H](F)C1` [Example 27, (R)-3-(4-fluoro-3-(trifluoromethyl)phen-yl)-5-(2-(3-fluoropyrrolidin-1-yl)-2-oxoethyl)thieno[3,2-c]pyridin-4(5H)-one] stands 81%; under `O=C(Cn1ccc2scc(-c3ccc(F)c(C(F)(F)F)c3)c2c1=O)N1C[C@@H](F)[C@@H](F)C1` [Example 28, 5-(2-((3S,4R)-3,4-difluoropyrrolidin-1-yl)-2-oxoethyl)-3-(4-fluoro-3-(trifluoromethyl)phen-nyl)thieno[3,2-c]pyridin-4(5H)-one], 94%. The result for `O=C(Cn1ccc2scc(-c3ccc(Cl)c(Cl)c3)c2c1=O)N1CC[C@@H](F)C1` [Example 29, (R)-3-(3,4-dichlorophenyl)-5-(2-(3-fluoropyrrolidin-1-yl)-2-oxoethyl)thieno[3,2-c]pyridin-4(5H)-one] reads 104%; that for `O=C(Cn1ccc2scc(-c3ccc(Cl)c(Cl)c3)c2c1=O)N1CC[C@H](F)C1` [Example 30, (S)-3-(3,4-dichlorophenyl)-5-(2-(3-fluoropyrrolidin-1-yl)-2-oxoethyl)thieno[3,2-c]pyridin-4(5H)-one], 96%. The result for `O=C(Cn1ccc2scc(-c3ccc(Cl)s3)c2c1=O)N1CCC(F)C1` (centres unmarked) [Example 31, 3-(5-chlorothiophen-2-yl)-5-(2-(3-fluoropyrrolidin-1-yl)-2-oxoethyl)thieno[3,2-c]pyridin-4(5H)-one] reads 34%.

As for `O=C(Cn1ccc2scc(-c3ccc(F)c(C(F)(F)F)c3)c2c1=O)N1CC(F)C1` [Example 32, 3-(4-fluoro-3-(trifluoromethyl)phen-yl)-5-(2-(3-fluoroazetidin-1-yl)-2-oxoethyl)thieno[3,2-c]pyridin-4(5H)-one], the “Response Recovered (%)” value worked out at 60%.
